Test results published in patent US20030047295A1, “Bio-bleaching of pulp using laccase, mediator, and chain transfer agent” (priority 2001, published 2003).

Assay: Pulp bleaching, delignification measured as Kappa number (TAPPI T236 cm-85)
Conditions: for Kappa No.: 2 g pulp, starting Kappa 31
Protocol: Delignification of the pulp was measured as the change in Kappa number according to the TAPPI method T236 cm-85. A typical procedure is as follows. A known mass of paper pulp (containing lignin) is reacted with an excess of potassium permanganate in an acid solution for a specified period of time to oxidize the lignin. After the reaction, the residual permanganate is determined by titration. The Kappa number is defined as the volume (ml) of 0.1N potassium permanganate consumed by 1 g of moisture-free pulp in 0.5N sulfuric acid after a ten-minute reaction time at 25° C. under conditions such that one-half of the permanganate remains unreacted. A linear relationship with the lignin content of the pulp and the measurement of the Kappa number has already been done on samples as low as 300 mg of pulp.
A softwood Kraft pulp, Kappa number 31.0, was treated with a laccase (NS51003) under the following conditions:
The dried pulp was added to 80 ml of 50 mM phosphate, pH 5.5, and disintegrated in a blender. The pulp was then transferred to a 500 ml conical flask and the blender was washed with 20 ml of the same buffer. The washed buffer and the pulp were combined. The mediator was added at 1-4% (w/w, based on the dry pulp), followed by the addition of the laccase. The pH of the pulp mixture was adjusted to 5.5 if needed. The flask was covered with an aluminum foil with holes punched through and incubated at 50° C. for 16 hrs on a rotary shaker at 200 rpm.
After the enzymatic treatment, the pulp mixture was filtered through a Buchner funnel, and the pulp was washed with water. The pulp from the control experiment was treated at the same pH and temperature as described above.
The washed pulp was then treated with an alkaline solution under the following conditions:
The filtered pulp was repulped in the alkaline solution and incubated at 70° C. for 3 hrs. The pH of the pulp mixture should be between 11.7-12.00 during the entire treatment. After the treatment, the pulp mixture was filtered through a Buchner funnel, and the pulp was washed with water extensively and then dried in a hood overnight.
The delignification of the pulp was measured as a change in Kappa Number according to TAPPI method T236 cm-85.
In this example, we used the typical pulp bleaching experiment as described above. We also used laccase as the enzyme, hardwood black liquor (HWBL) as the mediator, and two chain transfer agents (anthracene and CBr4).

[1] = laccase 100 ul plus HWBL 200 ul as mediator plus chain transfer agent 20 mg

Row | SMILES | Kappa No. [1] | Kappa number reduction (in words) (0.1 ml of the 51003 laccase with the mediator) | Kappa No. (laccase 100 ul plus mediator (HBT 20 mg or HWBL 200 ul), no chain transfer agent)
1 | BrC(Br)(Br)Br [CBr4, carbon tetrabromide] | 24.4 |  | 
2 | c1ccc2cc3ccccc3cc2c1 [anthracene] | 25.4 |  | 
3 | On1nnc2ccccc21 [HBT, 1-hydroxybenzotriazole] |  | modest Kappa number reduction | 26.1
